Data as given in patent US7435742B2, “Quinuclidine derivatives and pharmaceutical compositions containing the same” (Laboratorios Almirall S.A., priority 2002, dated 2008).

melting point	SMILES
126 °C	CCCCN(C(=O)O[C@H]1C[N+]2(CCCOc3ccc(F)cc3)CCC1CC2)c1ccccc1.[Cl-]
127 °C	CCCCN(C(=O)O[C@H]1C[N+]2(CCCc3cccs3)CCC1CC2)c1ccccc1.[Br-]
133 °C	O=C(O[C@H]1C[N+]2(CCOc3ccccc3)CCC1CC2)N(Cc1cccs1)c1ccccc1.[Br-]
110 °C	C=CC[N+]12CCC(CC1)[C@@H](OC(=O)N(Cc1cccs1)c1ccccc1)C2.[Br-]
203 °C	C[N+]12CCC(CC1)[C@@H](OC(=O)N(CCc1ccccc1)c1ccccc1)C2.[Br-]
173.9 to 175.5 °C	O=C(O[C@H]1C[N+]2(CCOc3ccccc3)CCC1CC2)N(Cc1cc(F)c(F)c(F)c1)c1cccc(F)c1.[Br-]
73.1 to 74.5 °C	O=C(O[C@H]1C[N+]2(CCOc3ccccc3)CCC1CC2)N(CC1CCCCC1)c1ccccc1F.[Br-]
73.3 to 74.1 °C	O=C(O[C@H]1C[N+]2(CCCc3ccccc3)CCC1CC2)N(CC1CCCCC1)c1ccccc1F.[Br-]
95 °C	O=C(O[C@H]1C[N+]2(CCCc3cccs3)CCC1CC2)N(Cc1ccccc1)c1ccccc1.[Br-]
117 °C	O=C(O[C@H]1C[N+]2(CCOc3ccccc3)CCC1CC2)N(Cc1ccccc1)c1ccccc1.[Br-]
143 °C	O=C(O[C@H]1C[N+]2(CCCc3cccs3)CCC1CC2)N(Cc1cccs1)Cc1cccs1.[Br-]
137.3 to 139.1 °C	Cc1cccc(N(Cc2cc(F)c(F)cc2F)C(=O)O[C@H]2C[N+]3(CCOc4ccccc4)CCC2CC3)c1.[Br-]
